Values after ≈ are worked out from the molar mass of the structure shown.
Key:
[1] = system: Escherichia coli R18 KY8321; assay: MIC, agar dilution method, pH 7.2; type: cell-based; settings: R18KY8321, E. coli R18 KY8321, 2**: gentamicin, producing adenylsynthetase and neomycin phosphotransferase type II, read-out: Minimum inhibition concentration (MIC)
Method: (§1) Measurement was carried out according to the agar dilution method, using a medium of pH 8.0, or the Japanese Antibiotic Medicament Standard, using a medium of pH 7.2 Units are in mcg/ml.
2: gentamicin, producing adenylsynthetase and neomycin phosphotransferase

[2] = system: Staphylococcus aureus KY4279 ATCC6538P; assay: MIC, agar dilution method, pH 8.0; type: cell-based; settings: pH 8.0, Staphylococcus aureus KY4279, read-out: Minimum inhibition concentration (MIC), SA
Method: as §1
S.A.: Staphylococcus aureus KY4279 ATCC6538P

[3] = system: Pseudomonas aeruginosa R9 KY8516; assay: MIC, agar dilution method, pH 7.2; type: cell-based; settings: R9KY8516, pH 7.2, read-out: Minimum inhibition concentration (MIC)
Method: as §1
(§2) 3: kanamycin, producing acetyltransferase.

Serratia marcescens 1065 = assay: MIC, agar dilution method, pH 7.2; type: cell-based; settings: Serratia marcescens, 1065, pH 7.2, read-out: Minimum inhibition concentration (MIC)
Method: as §1, §2

[4] = system: Escherichia coli R17 Z343; assay: MIC, agar dilution method, pH 7.2; type: cell-based; settings: R17Z343, pH 7.2, read-out: Minimum inhibition concentration (MIC)
Method: as §1, §2

[5] = system: Klebsiella pneumoniae KY4275 ATCC10031; assay: MIC, agar dilution method, pH 8.0; type: cell-based; settings: Klebsiella pneumoniae, ATCC10031, pH 8, read-out: Minimum inhibition concentration (MIC), KP
Method: as §1
K.P.: Klebsiella pneumoniae KY4275 ATCC10031.

[6] = system: Eschericia coli KY4271 ATCC26; assay: MIC, agar dilution method, pH 8.0; type: cell-based; settings: Escherichia coli, ATCC26; pH 8.0; E. coli KY4271; read-out: Minimum inhibition concentration (MIC), EC
Method: as §1
E.C.: Eschericia coli KY4271 ATCC26

Bacillus subtilis KY4273 = assay: MIC, agar dilution method, pH 8.0; type: cell-based; settings: pH 8.0; Bacillus subtilis KY4273; read-out: Minimum inhibition concentration (MIC), BS
Method: as §1
B.S.: Bacillus subtilis KY4273

[7] = system: Escherichia coli R20 KY8349; assay: MIC, agar dilution method, pH 7.2; type: cell-based; settings: R20KY8349, pH 7.2, E. coli R20 KY8349, 5**: neomycin, producing phosphotransferase type I, read-out: Minimum inhibition concentration (MIC)
Method: as §1
5: neomycin, producing phosphotransferase type I.

Escherichia coli 76-2 = assay: MIC, agar dilution method, pH 7.2; type: cell-based; settings: Escherichia coli, 762, pH 7.2, read-out: Minimum inhibition concentration (MIC)
Method: as §1
(§3) **1: gentamicin, producing adenylsynthetase.

[8] = system: Klebsiella pneumoniae 3020 Y-60; assay: MIC, agar dilution method, pH 7.2; type: cell-based; settings: Klebsiella pneumoniae, 3020Y60, pH 7.2, read-out: Minimum inhibition concentration (MIC)
Method: as §1, §3

[9] = system: Escherichia coli R12 Z-338; assay: MIC, agar dilution method, pH 7.2; type: cell-based; settings: R12Z338, pH 7.2, read-out: Minimum inhibition concentration (MIC)
Method: as §1, §3

[10] = system: Escherichia coli 57R/W677; assay: MIC, agar dilution method, pH 7.2; type: cell-based; settings: 57R/W677, pH 7.2, read-out: Minimum inhibition concentration (MIC)
Method: as §1, §3

Eschericihia coli 3100 = assay: MIC, agar dilution method, pH 7.2; type: cell-based, Escherichia coli; settings: Escherichia coli, 3100, pH 7.2, read-out: Minimum inhibition concentration (MIC)
Method: as §1

[11] = system: Pseudomonas aeruginosa R5 KY8512; assay: MIC, agar dilution method, pH 7.2; type: cell-based; settings: R5KY8512, pH 7.2, read-out: Minimum inhibition concentration (MIC)
Method: as §1
6: neomycin, producing phosphotransferase type I and type II.

[12] = system: Salmonella typhosa KY4278 ATCC9992; assay: MIC, agar dilution method, pH 8.0; type: cell-based; settings: Salmonella enterica, pH 8, read-out: Minimum inhibition concentration (MIC), ST
Method: as §1
S.T.: Salmonella typhosa KY4278 ATCC9992

[13] = system: Escherichia coli R19 KY8348; assay: MIC, agar dilution method, pH 7.2; type: cell-based; settings: R19KY8348, pH 7.2, read-out: Minimum inhibition concentration (MIC)
Method: as §1
(§4) 4: gentamicin, producing acetyltransferase type I.

[14] = system: Pseudomonas aeruginosa R4 KY8511; assay: MIC, agar dilution method, pH 7.2; type: cell-based; settings: R4KY8511, pH 7.2, read-out: Minimum inhibition concentration (MIC)
Method: as §1, §4

[15] = system: Salmonella enteritidis G-14; assay: MIC, agar dilution method, pH 7.2; type: cell-based; settings: Salmonella enterica, ENTERITIDIS, pH 7.2, read-out: Minimum inhibition concentration (MIC)
Method: as §1

Escherichia coli NIHTC-2 = assay: MIC, agar dilution method, pH 7.2; type: cell-based; settings: Escherichia coli, NIHTC2, pH 7.2, read-out: Minimum inhibition concentration (MIC)
Method: as §1

[16] = system: Klebsiella pneumoniae KY4274; assay: MIC, agar dilution method, pH 7.2; type: cell-based; settings: Klebsiella pneumoniae, KY4274, pH 7.2, read-out: Minimum inhibition concentration (MIC)
Method: as §1

[17] = system: Pseudomonas aeruginosa BMH# 1; assay: MIC, agar dilution method, pH 7.2; type: cell-based; settings: Pseudomonas aeruginosa, pH 7.2, read-out: Minimum inhibition concentration (MIC)
Method: as §1

Shigella sonnei ATCC9290 = assay: MIC, agar dilution method, pH 7.2; type: cell-based; settings: read-out: Minimum inhibition concentration (MIC)
Method: as §1

Proteus vulgaris JJ = assay: MIC, agar dilution method, pH 7.2; type: cell-based; settings: Proteus vulgaris, pH 7.2, read-out: Minimum inhibition concentration (MIC)
Method: as §1

[18] = system: Eschericihia coli GN2411-5; assay: MIC, agar dilution method, pH 7.2; type: cell-based; settings: Escherichia coli, GN2411, pH 7.2, read-out: Minimum inhibition concentration (MIC)
Method: as §1

[19] = system: Staphylococcus aureus Smith (A); assay: MIC, agar dilution method, pH 7.2; type: cell-based; settings: Staphylococcus aureus, pH 7.2, read-out: Minimum inhibition concentration (MIC)
Method: as §1

[20] = system: Staphylococcus aureus 209-P; assay: MIC, agar dilution method, pH 7.2; type: cell-based; settings: Staphylococcus aureus, 209P, pH 7.2, read-out: Minimum inhibition concentration (MIC)
Method: as §1

[21] = system: Pseudomonas aeruginosa UCLA 4184; assay: MIC, agar dilution method, pH 7.2; type: cell-based; settings: Pseudomonas aeruginosa, UCLA4184, pH 7.2, read-out: Minimum inhibition concentration (MIC)
Method: as §1

CO[C@H]1[C@@H](O)[C@H](N)[C@@H](O[C@H]2O[C@H]([C@H](C)N)CC[C@H]2N)[C@H](O)[C@@H]1N(C)C(=O)CN [Compound 2, 4-N-glycylfortimicin B, reference compound]
MIC [1]: 3.12 µg/mL (≈ 7.69 µM)
MIC [2]: 0.04 µg/mL (≈ 0.0986 µM)
MIC [3]: 50 µg/mL (≈ 123 µM)
MIC (Serratia marcescens 1065): 6.25 µg/mL (≈ 15.4 µM)
MIC [4]: 1.56 µg/mL (≈ 3.85 µM)
MIC [5]: 0.16 µg/mL (≈ 0.395 µM)
MIC [6]: 0.16 µg/mL (≈ 0.395 µM)
MIC (Bacillus subtilis KY4273): 0.04 µg/mL (≈ 0.0986 µM)
MIC [7]: 3.12 µg/mL (≈ 7.69 µM)
MIC (Escherichia coli 76-2): 3.12 µg/mL (≈ 7.69 µM)
MIC [8]: 12.5 µg/mL (≈ 30.8 µM)
MIC [9]: 12.5 µg/mL (≈ 30.8 µM)
MIC [10]: 12.5 µg/mL (≈ 30.8 µM)
MIC (Eschericihia coli 3100): 6.25 µg/mL (≈ 15.4 µM)
MIC [11]: 12.5 µg/mL (≈ 30.8 µM)
MIC [12]: 0.16 µg/mL (≈ 0.395 µM)
MIC [13]: > 100 µg/mL
MIC [14]: > 100 µg/mL
MIC [15]: 6.25 µg/mL (≈ 15.4 µM)
MIC (Escherichia coli NIHTC-2): 3.12 µg/mL (≈ 7.69 µM)
MIC [16]: 3.12 µg/mL (≈ 7.69 µM)
MIC [17]: 12.5 µg/mL (≈ 30.8 µM)
MIC (Shigella sonnei ATCC9290): 6.25 µg/mL (≈ 15.4 µM)
MIC (Proteus vulgaris JJ): 3.12 µg/mL (≈ 7.69 µM)
MIC [18]: 6.25 µg/mL (≈ 15.4 µM)
MIC [19]: 0.78 µg/mL (≈ 1.92 µM)
MIC [20]: 0.78 µg/mL (≈ 1.92 µM)
MIC [21]: 25 µg/mL (≈ 61.7 µM)

Reference: patent publication US4220755A, “Fortimicin B derivatives and process for production thereof” (Abbott Laboratories, priority 1976, dated 1980)
